Data set [1] has as its system testosterone-estradiol binding globulin. The experiment in a line: Binding to testosterone-estradiol binding globulin of human plasma. From the text: This protein contaminates most human tissue preparations, complicating the detection of sex steroid receptors.
Data set [2] has as its system rat uterine cytosol (8S and 4S forms). The experiment in a line: Glycerol gradient sedimentation of labelled rat uterine cytosol. Type of data set: binding. The note with it: glycerol gradients, with and without 0.4M KCl; DES 7×10^-7 M. The protocol:
The analysis was performed with glycerol rather than the usual sucrose because a more pronounced 8S peak was obtained in the glycerol gradients with both ^3 H- and ^125 I-labeled estradiol. Rat uterine cytosol was prepared as described in Example 4. […] Separate tubes also contained 0.4M KCl. At the end of the incubation, free steroid was removed by adding the incubation mixture to a tube containing a 5-mg pellet of dextran-coated charcoal. After shaking for 5 to 10 minutes at 0° C., the charcoal was removed by centrifugation. […] Fractions of four drops were collected from the bottom of the tube. Control tubes containing cytosol mixed with ^14 C-labeled bovine serum albumin (BSA) as a marker were also analyzed. The sedimintation pattern is illustrated in FIG. 2. The low-salt 8S form (FIG. 2, Curve A) is totally transformed into the 4S form by 0.4M KCl (FIG. 2, Curve B).

A short description of data set [3]: Stability of the radiolabelled compound on storage. The class given is physicochemical. The protocol:
In several experiments the yield of ^125 I-labeled estradiol ranged from 25 to 65 percent of the incubated ^125 I. The purified radioactive iodinated compound was stored at 0° to 4° C. in a benzene-methanol mixture (95:5).

Turning to `C[C@]12CC[C@@H]3c4ccc(O)cc4CC[C@H]3[C@@H]1C[C@@H]([125I])[C@@H]2O` [^125 I-E2, 16α-[^125 I]iodoestra-1,3,5(10)-triene-3,17β-diol], the “binding to testosterone-estradiol binding globulin” value in data set [1] is “does not bind”. The “displacement by DES of radioactivity bound to the 8S and 4S forms” value in data set [2] was “almost completely displaced by DES”. Also, the decomposition on storage entry in data set [3] (weeks of storage at 0° to 4° C. in benzene-methanol (95:5)) is “no signs of decomposition”; in data set [3] (weeks of storage of 4° C.), “little sign of decomposition”.

(Values after patent publication US4465676A, “16α Halogen substituted 3,17β-dihydroxy steroidal estrogens” (priority 1980, dated 1984).)
